The values below come from article PMC9854762, “Antibiofilm and Anti-Quorum-Sensing Activities of Novel Pyrazole and Pyrazolo[1,5-a]pyrimidine Derivatives as Carbonic Anhydrase I and II Inhibitors: Design, Synthesis, Radiosterilization, and Molecular Docking Studies” (Antibiotics, 2023).

Converted amounts (≈) assume the structure as drawn. Read-outs that look alike come from different tables or passages of the source.

In data set [1] the test system is E. coli DH-5987. Nature of the data set: Agar well-diffusion assay. It is filed as cell-based. Particulars: Escherichia coli, DH5987, 50 µL of 10 mM per well, read-out: Diameter of Inhibition Zones (AZOI). The method, then:
(§1) The synthesized compounds were initially screened for their in vitro antibacterial activity against the different Gram-positive and Gram-negative bacteria, tested using the agar well-diffusion assay. The turbidity of the bacterial suspensions was established to the 0.5 McFarland turbidity standard. The activity was performed on TS agar plates. The bacteria were spread on the surface of the agar plates, and 10 mm wells were screwed into the agar plates. The assay was performed under aseptic conditions. An aliquot of 50 µL of each tested compound (10 mM) was added to the wells, and the plates were incubated overnight at 37 °C. Both Erythromycin and Amikacin antibiotic disks were used as positive control, while DMSO solvent was used as a negative control in this study. The diameters of inhibition zones were measured and recorded in mm. A comparative study of the synthesized compounds was determined. The experiment was performed in triplicates.

Data set [2] concerns A. baumannii DH-243. Nature of the data set: Agar well-diffusion assay. It is filed as cell-based. To be noted: Acinetobacter baumannii. The method, then: as §1
For data set [3], the system named is P. aeruginosa DH-5698. Nature of the data set: Broth microdilution MIC/MBC. The class given is cell-based, Pseudomonus aeruginosa. To be noted: for MIC: Pseudomonas aeruginosa, DH5698, 24 h, read-out: MIC (Mean ± SEM); for MBC/MIC: value in brackets. The method, then: (§2) The broth microdilution method was taken as a basis to detect the MICs of pyrazole compounds against tested clinical isolates, according to the Clinical Laboratory and Standards Institute guidelines. The broth cultures were used to prepare the bacterial inoculums, and the suspensions were adjusted to the standard 0.5 McFarland turbidity. Stock solutions of the synthesized pyrazoles were prepared in pure DMSO and further serially diluted with TS broth in the concentration range from 128 µg/mL to 0.0625 µg/mL. A well containing noninoculated TS broth, free of any antimicrobial agents, was also included to ensure the medium sterility, while Erythromycin and Amikacin served as positive controls. Bacterial growth was determined by adding 20 µL of 0.5% TTC (2,3,5-triphenyltetrazolium chloride) aqueous solution. […] All experiments were repeated three times. The bactericidal effect from each concentration of the pyrazole and pyrazolo[1,5-a]pyrimidine derivatives showing growth inhibition was further studied. For this study, a loopful of 5 µL was taken from each no-visible growth tube and streaked onto plates of TS agar.

In data set [4] the test system is E. coli DH-5987. Nature of the data set: Broth microdilution MIC/MBC. It is filed as cell-based, Escherichia coli. To be noted: for MBC/MIC: value in brackets; for MIC: read-out: MIC (Mean ± SEM). Here is the method: as §2
For data set [5], the system named is A. baumannii DH-243. Nature of the data set: Broth microdilution MIC/MBC. It is filed as cell-based, Acinetobacter baumannii. Particulars: for MIC: Acinetobacter baumannii, DH243, 24 h, read-out: MIC (Mean ± SEM); for MBC/MIC: value in brackets. The method, then: as §2
The subject of data set [6] is P. aeruginosa DH-5698. Nature of the data set: Agar well-diffusion assay. It is filed as cell-based, Pseudomonus aeruginosa. Particulars: Pseudomonas aeruginosa. The method, then: as §1
Data set [7] deals with S. pyogenes DH-3467. Nature of the data set: Agar well-diffusion assay. The class given is cell-based. To be noted: Streptococcus pyogenes, DH3467; S. pyogenes DH-3467; 50 µL of 10 mM per well; read-out: Diameter of Inhibition Zones (AZOI). The method, then:
as §1

Data set [8] has as its system E. faecalis DH-5478. Nature of the data set: Agar well-diffusion assay. The class given is cell-based. To be noted: Enterococcus faecalis, DH5478; E. faecalis DH-5478; 50 µL of 10 mM per well; read-out: Diameter of Inhibition Zones (AZOI). The method, then:
as §1

Data set [9] deals with S. aureus DH-432. Nature of the data set: Agar well-diffusion assay. It is filed as cell-based. Particulars: Staphylococcus aureus, DH432; S. aureus DH-432; 50 µL of 10 mM per well; read-out: Diameter of Inhibition Zones (AZOI). Here is the method:
as §1

The test system of data set [10] is S. pyogenes DH-3467. Nature of the data set: Broth microdilution MIC/MBC. The class given is cell-based, Streptococcus pyogenes. Particulars: for MIC: Streptococcus pyogenes, DH3467, 24 h, read-out: MIC (Mean ± SEM); for MBC/MIC: value in brackets. The method, then:
as §2

In data set [11] the test system is S. aureus DH-432. Nature of the data set: Broth microdilution MIC/MBC. The class given is cell-based, Staphylococcus aureus. To be noted: for MIC: Staphylococcus aureus, DH432, 24 h, read-out: MIC (Mean ± SEM); for MBC/MIC: value in brackets. The method, then: as §2
For data set [12], the system named is E. faecalis DH-5478. Nature of the data set: Broth microdilution MIC/MBC. To be noted: for MIC: Enterococcus faecalis, DH5478, 24 h, read-out: MIC (Mean ± SEM); for MBC/MIC: value in brackets. It is filed as cell-based, Enterococcus faecalis. Here is the method:
as §2

[13] abbreviates: Escherichia coli, DH5987, E. coli DH-5987, 24 h.
The mark [14] stands for this setting: DH243, A. baumannii DH-243, 50 µL of 10 mM per well, read-out: Diameter of Inhibition Zones (AZOI).
[15] abbreviates: DH5698, P. aeruginosa DH-5698, 50 µL of 10 mM per well, read-out: Diameter of Inhibition Zones (AZOI).

Take `NCC[C@H](O)C(=O)N[C@@H]1C[C@H](N)[C@@H](O[C@H]2O[C@H](CN)[C@@H](O)[C@H](O)[C@H]2O)[C@H](O)[C@H]1O[C@H]1O[C@H](CO)[C@@H](O)[C@H](N)[C@H]1O` [AK, Amikacin, reference compound]: the zone of inhibition at 10000 µM in [1] was 11 mm; in data set [2] (DH243, read-out: Diameter of Inhibition Zones (AZOI)), 13 mm; in data set [6] (DH5698, read-out: Diameter of Inhibition Zones (AZOI)) it was 14 mm. The MIC in data set [3] worked out at 128 ± 0.1 µg/mL (≈ 219 µM); in data set [4] (setting [13]), 32 µg/mL (≈ 54.6 µM); in data set [5], 128 ± 0.2 µg/mL (≈ 219 µM). Further, the MBC/MIC in data set [3], in data set [4] (E. coli DH-5987) and in data set [5] was 4 throughout. Further, the “MIC (Mean ± SEM)” value in data set [4] (E. coli DH-5987, 24 h) was determined as 32 ± 0.2 µg/mL (≈ 54.6 µM). In [4] (Escherichia coli, DH5987, E. coli), this compound showed an MBC of 128 µg/mL (≈ 219 µM).
For the compound `CCOC(=O)c1ccc(N=Nc2c(N)nn(-c3ccccc3)c2N)cc1` [Compound 3b, Ethyl 4-((3,5-diamino-1-phenyl-1H-pyrazol-4-yl)diazenyl)benzoate], the melting point lay in the range of 144 to 146 °C. For the same compound, the zone of inhibition at 10000 µM in data set [7] was 24.7 mm. Further, the zone of inhibition at 10000 µM in [1] was 26.9 mm. The zone of inhibition at 10000 µM in [8] is 24.4 mm. In data set [2] (setting [14]), the zone of inhibition at 10000 µM was found to be 23.1 mm. Besides, the zone of inhibition at 10000 µM in data set [9] came to 25.2 mm. Also, in data set [10], the MIC came out at 0.75 ± 0.4 µg/mL (≈ 2.14 µM) and the MBC/MIC was determined as 1. Also, in data set [3], the minimal inhibitory concentration (MIC) stood at 1 ± 0.2 µg/mL (≈ 2.85 µM) and the MBC/MIC was 0.5. The MBC/MIC in data set [4] (E. coli DH-5987) was found to be 1. The MIC in data set [4] (setting [13]) came out at 0.5 ± 0.2 µg/mL (≈ 1.43 µM). In data set [11], the MIC came out at 0.5 ± 0.1 µg/mL (≈ 1.43 µM) and the MBC/MIC turned out to be 1. Moreover, in data set [5], the MIC was 1 ± 0.3 µg/mL (≈ 2.85 µM) and the MBC/MIC is 0.5. Moreover, in data set [12], the minimal inhibitory concentration (MIC) came to 0.75 ± 0.2 µg/mL (≈ 2.14 µM) and the MBC/MIC amounted to 0.5. In addition, the zone of inhibition at 10000 µM in [6] (setting [15]) was 25.1 mm.
As for `CCOC(=O)c1ccc(N=Nc2c(N)nn(C(N)=S)c2N)cc1` [Compound 3c, Ethyl 4-((3,5-diamino-1-carbamothioyl-1H-pyrazol-4-yl)diazenyl)benzoate], the melting point was in the range of 280 to 282 °C. Besides, the zone of inhibition at 10000 µM in [7] worked out at 22.6 mm. The zone of inhibition at 10000 µM in [1] stood at 24.7 mm. Besides, in [8], the zone of inhibition at 10000 µM was found to be 21.3 mm. In data set [2] (setting [14]), the zone of inhibition at 10000 µM turned out to be 22.5 mm. Further, in data set [9], the zone of inhibition at 10000 µM is 23.8 mm. In [10], the MIC came out at 0.75 ± 0.2 µg/mL (≈ 2.25 µM) and the MBC/MIC came out at 0.5. In data set [3], the MIC worked out at 1 ± 0.3 µg/mL (≈ 3 µM) and the MBC/MIC was 1. Also, the MBC/MIC in data set [4] (E. coli DH-5987) turned out to be 0.5. The MIC in data set [4] (setting [13]) turned out to be 0.75 ± 0.5 µg/mL (≈ 2.25 µM). Besides, in [11], the minimum inhibitory concentration (MIC) stood at 0.75 ± 0.2 µg/mL (≈ 2.25 µM) and the MBC/MIC was 1. Moreover, in [5], the MIC stood at 2 ± 0.2 µg/mL (≈ 6 µM) and the MBC/MIC worked out at 1. Also, in data set [12], the MIC was 1 ± 0.3 µg/mL (≈ 3 µM) and the MBC/MIC is 1. The zone of inhibition at 10000 µM in data set [6] (setting [15]) is 23.2 mm.
